For 32 compounds, EC50 and AC50 results are on record in ChEMBL document CHEMBL1201862, “PubChem BioAssay data set” (2004).

Molecules are shown by their SMILES. “And” between values parts separate entries of the source, which are not always exact repeats. Equal values may be shown once. The source made the active and inactive calls.

Data set [1] in a line: Luminescence Cell-Based Dose Response HTS to Identify Activators of Luciferase Translation or Activity in H4 […] Cells. [Related pubchem assays: 1829 (Project Summary), 1814 (Primary HTS)]. Type of data set: functional.
A further data set relates to H4. The experiment in a line: Luminescence Cell-Based Dose Response HTS to Identify Activators of 5'UTR Stem-Loop Driven Prion Protein mRNA Translation in H4 Neuroglioblastoma Cells. [Related pubchem assays: 1829 (Project Summary), 1814 (Primary HTS)]. Type of data set: functional. As to conditions: Homo sapiens.
The nature of data set [2]: Luminescence Cell-Based Dose Confirmation HTS to Identify Activators of 5'UTR Stem-Loop Driven Alpha-Synuclein mRNA Translation in H4 Neuroglioblastoma Cells. [Related pubchem assays: 1829 (Project Summary), 1814 (Primary HTS)]. Type of data set: functional.
The nature of data set [3]: growth suppression of beta-catenin-knockout colon cells, dose response, cell-based, HCT116, human colon tumor (AID 1045).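 Further: HCT116 colon tumor cells with beta catenin knocked out; cells exposed to compound for 60 hours.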 Type of data set: functional.
The next data set deals with Cytochrome P450 2C19 (Homo sapiens, UniProt P33261). Nature of the data set: Cytochrome panel assay with activity outcomes. Panel member name: p450-cyp2c19 Compounds with AC50 equal or less than 10 uM are considered active. Type of data set: functional.
Sequence of Cytochrome P450 2C19 (P33261 whole entry): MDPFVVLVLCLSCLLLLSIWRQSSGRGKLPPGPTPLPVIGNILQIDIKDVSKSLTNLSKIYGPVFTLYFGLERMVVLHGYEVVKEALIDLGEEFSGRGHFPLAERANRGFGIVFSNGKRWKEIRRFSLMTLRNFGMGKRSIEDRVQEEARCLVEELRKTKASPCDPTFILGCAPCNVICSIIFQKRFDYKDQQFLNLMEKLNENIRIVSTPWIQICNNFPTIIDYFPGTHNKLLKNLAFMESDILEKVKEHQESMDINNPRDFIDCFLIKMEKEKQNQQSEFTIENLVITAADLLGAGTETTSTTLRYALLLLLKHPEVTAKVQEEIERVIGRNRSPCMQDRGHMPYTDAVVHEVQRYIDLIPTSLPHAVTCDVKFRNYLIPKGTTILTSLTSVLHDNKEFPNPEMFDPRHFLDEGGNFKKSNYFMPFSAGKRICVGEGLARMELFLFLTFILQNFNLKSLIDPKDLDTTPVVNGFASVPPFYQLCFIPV
Data set [4] is described as follows: growth suppression of PTEN-null colon cells, dose response, cell-based, HCT116 PTEN knockout (AID 1047).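 Further: HCT116 colon tumor cells with PTEN knocked out; cells exposed to compound for 60 hours before readout; potency for loss of cell viability measured by luminescence.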 Type of data set: functional.
A short description of data set [5]: Luminescence Cell-Based Dose Response HTS to Identify Inhibitors of 5'UTR Stem-Loop Driven Prion Protein mRNA Translation in H4 Neuroglioblastoma Cells. [Related pubchem assays: 1827 (Project Summary), 1813 (Primary HTS)]. Type of data set: functional.
The nature of data set [6]: inhibitors of SNCA 5'UTR-driven reporter translation, confirmation, H4 neuroglioma cells, luminescence (AID 1988). Type of data set: functional, cell-based.
The target of the next data set is Cytochrome P450 3A4 (Homo sapiens, UniProt P08684).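 Further: CYP3A4 tested as one member of a cytochrome P450 panel screen.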
Sequence of Cytochrome P450 3A4 (P08684 whole entry): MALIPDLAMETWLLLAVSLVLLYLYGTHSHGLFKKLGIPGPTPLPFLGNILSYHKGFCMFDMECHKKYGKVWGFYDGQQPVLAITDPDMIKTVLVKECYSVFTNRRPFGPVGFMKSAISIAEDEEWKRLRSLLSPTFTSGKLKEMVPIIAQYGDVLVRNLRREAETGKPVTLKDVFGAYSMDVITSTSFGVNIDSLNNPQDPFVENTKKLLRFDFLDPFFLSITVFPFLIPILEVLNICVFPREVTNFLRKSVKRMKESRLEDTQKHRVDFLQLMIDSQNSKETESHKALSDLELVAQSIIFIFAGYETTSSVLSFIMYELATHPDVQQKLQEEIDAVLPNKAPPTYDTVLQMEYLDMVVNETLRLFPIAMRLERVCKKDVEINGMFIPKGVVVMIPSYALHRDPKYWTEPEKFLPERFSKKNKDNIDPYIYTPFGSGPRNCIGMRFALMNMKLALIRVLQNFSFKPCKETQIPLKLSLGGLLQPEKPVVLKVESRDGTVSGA
In a further data set the target is Cytochrome P450 2C9 (Homo sapiens, UniProt P11712).
Sequence of Cytochrome P450 2C9 (P11712 whole entry): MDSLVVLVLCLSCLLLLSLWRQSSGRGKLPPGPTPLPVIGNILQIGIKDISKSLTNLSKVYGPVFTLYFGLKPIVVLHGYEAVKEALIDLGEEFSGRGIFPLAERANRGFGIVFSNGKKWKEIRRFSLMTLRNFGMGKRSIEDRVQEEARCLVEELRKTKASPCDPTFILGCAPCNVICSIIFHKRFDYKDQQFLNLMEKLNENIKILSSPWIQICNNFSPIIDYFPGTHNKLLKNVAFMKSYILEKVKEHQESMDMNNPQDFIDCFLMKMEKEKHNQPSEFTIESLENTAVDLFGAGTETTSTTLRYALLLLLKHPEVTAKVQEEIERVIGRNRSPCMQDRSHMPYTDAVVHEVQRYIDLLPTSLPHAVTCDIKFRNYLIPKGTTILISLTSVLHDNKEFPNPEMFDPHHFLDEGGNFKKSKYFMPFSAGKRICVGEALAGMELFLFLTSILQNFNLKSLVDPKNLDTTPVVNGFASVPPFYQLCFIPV
For another data set, the target named is Cytochrome P450 2D6 (Homo sapiens, UniProt P10635).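 Further: CYP2D6 member of a cytochrome P450 panel assay.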
Sequence of Cytochrome P450 2D6 (P10635 whole entry): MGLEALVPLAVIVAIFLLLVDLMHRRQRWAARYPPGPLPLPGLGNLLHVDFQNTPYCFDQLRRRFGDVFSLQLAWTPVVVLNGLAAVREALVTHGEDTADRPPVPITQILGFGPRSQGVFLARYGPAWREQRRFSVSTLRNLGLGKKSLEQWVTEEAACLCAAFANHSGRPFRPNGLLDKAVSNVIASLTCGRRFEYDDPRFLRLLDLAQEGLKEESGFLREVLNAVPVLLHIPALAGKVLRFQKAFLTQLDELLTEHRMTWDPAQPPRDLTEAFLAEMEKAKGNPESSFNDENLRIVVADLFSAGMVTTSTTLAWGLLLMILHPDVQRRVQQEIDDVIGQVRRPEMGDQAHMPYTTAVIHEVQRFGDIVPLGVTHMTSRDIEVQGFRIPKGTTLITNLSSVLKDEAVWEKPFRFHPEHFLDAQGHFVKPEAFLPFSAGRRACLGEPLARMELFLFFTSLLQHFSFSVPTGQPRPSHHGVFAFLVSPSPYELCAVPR
Data set [7] can be described thus: cytotoxicity toward NIH3T3 fibroblasts, dose response, counter-screen, cell-based, ATP luminescence, mouse fibroblasts (AID 2010).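 Further: cells exposed to compound for about 90 hours before reading.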 Type of data set: functional.
Data set [8] in a line: inhibitors of intracellular T. cruzi replication, confirmation, NIH3T3 host cells, beta-gal luminescence (AID 2044).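 Further: intracellular parasites grown in NIH/3T3 mouse fibroblasts as host cells; luminescent beta-galactosidase reporter signal from transgenic T. cruzi replicating inside host cells; inhibitors lower the luminescence signal.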 Type of data set: functional, cell-based.
The target in another data set is T1, Cytochrome P450 1A2 (Homo sapiens, UniProt P05177).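 Further: PubChem cytochrome P450 panel assay, CYP1A2 panel member.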
T1 sequence (P05177 whole entry): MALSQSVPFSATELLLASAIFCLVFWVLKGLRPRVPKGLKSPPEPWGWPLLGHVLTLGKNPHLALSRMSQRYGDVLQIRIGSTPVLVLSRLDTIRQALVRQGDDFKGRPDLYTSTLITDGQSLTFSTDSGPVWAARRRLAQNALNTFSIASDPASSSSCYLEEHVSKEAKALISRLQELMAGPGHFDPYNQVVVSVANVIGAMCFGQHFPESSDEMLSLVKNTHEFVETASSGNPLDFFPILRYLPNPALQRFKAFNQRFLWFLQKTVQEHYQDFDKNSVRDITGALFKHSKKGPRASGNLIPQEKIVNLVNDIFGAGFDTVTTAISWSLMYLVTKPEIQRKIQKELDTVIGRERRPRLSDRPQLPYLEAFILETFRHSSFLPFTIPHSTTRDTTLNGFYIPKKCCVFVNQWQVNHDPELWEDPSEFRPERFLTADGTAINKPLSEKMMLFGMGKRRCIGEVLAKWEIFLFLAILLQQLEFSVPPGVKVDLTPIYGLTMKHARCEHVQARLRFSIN

The nature of data set [9]: Luminescence Cell-Based Dose Retest to Confirm Inhibitors of Cancer Stem Cells. [Related pubchem assays (depositor defined):AID2717, AID2721]. Type of data set: functional. Particulars: Homo sapiens.
In data set [10] the test system is Streptococcus sp. 'group A'. Nature of the data set: growth inhibition of control SK(-) GAS strain, dose response, counter-screen for streptokinase expression inhibitor project, luminescence, kanamycin, BacTiterGlo, confirmation (AID 1900). Type of data set: functional, organism-based. (In general: The purpose of a counterscreen is to sort out artefacts and off-target activity.)

Another data set deals with T2, Streptokinase A (Streptococcus pyogenes serotype M1, UniProt P10520).
T2 sequence (P10520 whole entry): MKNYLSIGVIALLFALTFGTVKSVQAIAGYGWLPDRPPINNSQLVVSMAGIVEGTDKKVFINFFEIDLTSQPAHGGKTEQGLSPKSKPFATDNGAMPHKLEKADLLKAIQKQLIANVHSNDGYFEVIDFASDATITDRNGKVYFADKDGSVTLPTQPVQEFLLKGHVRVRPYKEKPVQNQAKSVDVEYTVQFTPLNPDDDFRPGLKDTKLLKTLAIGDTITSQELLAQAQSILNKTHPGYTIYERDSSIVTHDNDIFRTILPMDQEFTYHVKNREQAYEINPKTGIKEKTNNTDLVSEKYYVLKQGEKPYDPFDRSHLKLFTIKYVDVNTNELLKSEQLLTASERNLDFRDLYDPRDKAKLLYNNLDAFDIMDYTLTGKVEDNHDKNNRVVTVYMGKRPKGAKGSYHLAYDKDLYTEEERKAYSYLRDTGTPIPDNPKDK
Nature of the data set: S. pyogenes streptokinase expression inhibitors, potency, dose response, plasminogen activation absorbance, OD405 (AID 1914).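 Further: secreted streptokinase activity via plasminogen activation per viability signal from cell pellet.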 Type of data set: functional, Streptococcus pyogenes M1 GAS.

The test system of the next data set is Streptococcus. The experiment in a line: Group A Streptococcus viability loss, dose response, counter-screen for streptokinase expression inhibitor project, luminescence, BacTiterGlo (AID 1915).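 Further: potency for reduction of bacterial viability or growth.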 Type of data set: functional, organism-based.
For another data set, the system named is INS1. The experiment in a line: beta cell apoptosis inhibitors, cytokine rescue, dose response, luminescence, retest (AID 449756).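 Further: cell death triggered by IL-1 beta plus TNF-alpha plus IFN-gamma mixture; protective hits raise ATP signal compared with cytokine alone wells.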 Type of data set: functional, cell-based. As to conditions: Rattus norvegicus.

In general, EC50 refers to the concentration that produces a half-maximal response. With `[O-][n+]1c2c([n+]([O-])c3cc(N4CCCC4)c(F)cc31)CCCC2`, the values for the EC50 (in data set [1]; in the data set with H4; in data set [2]) were 20.3 µM (active), 7.53 µM (active) and > 60 µM (not active), respectively.

A word on the AC50: it is the midpoint of the concentration-response curve, whichever way the signal moves. Take `CCCCNC(=O)CSc1nc2cc(OC)c(OC)cc2c(=O)n1Cc1ccc(OC)cc1`: the EC50 was 10.3 µM (active) in data set [3] and 6.66 µM (active) in [4]. Further, on Cytochrome P450 2C19 (read-out: AC50), the AC50 was 6.31 µM (inconclusive).

`CN1C(=O)C(O)(CC(=O)c2ccccc2O)c2cc(Br)ccc21` (configuration not stated): the EC50 in [3] was 17 µM (active); in data set [4], 18 µM (active).

Consider `Cc1cc(C)c(NC=C2C(=O)NC(=O)NC2=O)c(C)c1`, for which the EC50 in data set [5] is given as > 60 µM (not active); in [6], > 120 µM (not active).

As to `CCOC(=O)/C(C#N)=C\c1ccc(OCC(=O)Nc2ccc(C)cc2C)c(OC)c1`, the AC50 at Cytochrome P450 3A4 is 10 µM (inconclusive); on Cytochrome P450 2C9, 25.1 µM (inconclusive).

As for `CCc1cc2c(=O)c(-c3ccc4c(c3)OCCO4)c(C)oc2cc1OS(C)(=O)=O`, the EC50 in data set [3] is 28.1 µM (active); in data set [4], 21.3 µM (active).

For the compound `O=C1[C@@H]2C=CC=CC2=NC(=S)N1CCN1CCC(=C(c2ccc(F)cc2)c2ccc(F)cc2)CC1`, the AC50 at Cytochrome P450 3A4 is 3.16 µM (inconclusive); at Cytochrome P450 2C19 (read-out: AC50) it was 10 µM (inconclusive).

On to `N[N-][C+]1c2ccccc2N[C@H]1OC(=O)Nc1cccc(Cl)c1`, for which the AC50 is 5.01 µM (inconclusive) on Cytochrome P450 3A4, 3.16 µM (inconclusive) at Cytochrome P450 2C19 (read-out: AC50) and 3.98 µM (inconclusive) at Cytochrome P450 2D6.

With `O=C(Cn1cc(SCc2ccccc2Cl)c2ccccc21)N1CCOCC1`, the concentration for a half-maximal effect (EC50) was 8.21 µM (active) in data set [1], 21 µM (active) in the data set with H4 and 23.8 µM (active) in [2].

Consider `CCC(c1nnnn1Cc1ccco1)N(CCc1ccccc1)Cc1cc2ccc(OC)cc2nc1O` (configuration not stated), for which the EC50 is 23.6 µM (active) in data set [3] and 22.8 µM (active) in data set [4].

In the case of `CCCCn1c(=N)n(CC(=O)c2ccco2)c2ccccc21`, the AC50 at Cytochrome P450 3A4 is 31.6 µM (inconclusive); at Cytochrome P450 2C19 (read-out: AC50) it was 15.8 µM (inconclusive).

As for `N#Cc1c(N2CCCC2)nsc1-c1ccccc1`, the EC50 in data set [1] was 12.5 µM (active); in the data set with H4 it was 23.2 µM (active); in data set [2] it was 7.09 µM (active).

As for `COc1cc2c(=O)n(Cc3ccco3)c(=O)n(CC(=O)c3ccc(Br)cc3)c2cc1OC`, the half-maximal effective concentration (EC50) was 9.3 µM (active) in data set [3] and 8.57 µM (active) in [4].

Turning to `O=C(NCCCN1CCOCC1)c1cc2c(s1)CSC2`, the AC50 at Cytochrome P450 3A4 was 15.8 µM (inconclusive).

Regarding `O=C(NCCC[N+]1=CC=N[C@H]1c1ccccc1)N1CCCc2nc(-c3ccc(Br)cc3)ccc21`, the AC50 on Cytochrome P450 3A4 was 3.16 µM (inconclusive).

`CC(=O)N1CCC2(CCCN(C(=O)Nc3cccc(F)c3)C2)CC1`: the concentration at half-maximal activity (AC50) at Cytochrome P450 3A4 was 31.6 µM (inconclusive).

As for `Cc1noc(C)c1-c1cc(NCc2cccs2)ncn1`, the AC50 on Cytochrome P450 3A4 is 31.6 µM (inconclusive); at Cytochrome P450 2C19 it was “inconclusive”; on Cytochrome P450 2D6, 20 µM (inconclusive).

In the case of `Cc1ccc(C23CC4CC(CC(NC(=O)N5CCN(C)CC5)(C4)C2)C3)cc1`, the EC50 in data set [3] is 17.7 µM (active); in data set [4] it was 18 µM (active).

As for `COc1cccc(NC(=O)COC(=O)c2c3c(nc4ccccc24)CCC(C)C3)c1` (configuration not stated), the EC50 in [7] is > 60 µM (not active); in data set [3], 14.4 µM (active); in data set [8], 2.18 µM (active); in data set [4], 8.9 µM (active).

Regarding `CCC1CCCCN1C(=O)CSc1nc2c3ccccc3nc-2c(O)n1C` (configuration not stated), the 50% effective concentration (EC50) in data set [3] is 21.2 µM (active); in data set [4], 21.9 µM (active).

With `CSC1=N/C(=C\c2ccc(C)cc2)C(=O)S1`, at Cytochrome P450 3A4, the AC50 is 39.8 µM (inconclusive).

Turning to `O=C(Nc1ccccc1[N+](=O)[O-])C1C(c2ccccc2)=C1c1ccccc1`, at Cytochrome P450 3A4, the AC50 was 20 µM (inconclusive).

For the compound `CC(C)[C@@H](OCc1ccccc1)[C@H](C)/C=N\O[C@@H](C)c1cn([C@H](CO)Cc2ccccc2)nn1`, on Cytochrome P450 3A4, the AC50 is 3.16 µM (inconclusive) and 3.98 µM (inconclusive).

For the compound `Cc1ccc(NC(=O)Cc2nc(CSc3nnc(-c4ccc5c(c4)OCO5)o3)cs2)cc1`, the EC50 in data set [1] is 53.6 µM (active); in the data set on H4, 6.97 µM (active); in data set [2], 82.5 µM (active).

For `Clc1ccccc1-c1nnc2sc(-c3ccc4c(c3)OCO4)nn12`, the values for the EC50 (in [1]; in the data set with H4; in [2]) were 10.9 µM (active), 57.6 µM (inconclusive) and > 120 µM (not active), respectively.

For the compound `C=CCc1cc(C=O)cc(OC)c1OCc1ccc(Cl)cc1`, the AC50 at Cytochrome P450 3A4 was 17.8 µM (inconclusive).

Turning to `CC(=O)/C(=C\c1ccccc1F)C(=O)c1ccccc1`, the AC50 at Cytochrome P450 3A4 was 3.16 µM (inconclusive); at Cytochrome P450 1A2, 5.01 µM (inconclusive); on Cytochrome P450 2C9 it was 6.31 µM (inconclusive).

`C=C(C)COc1ccc(-c2nc(N)ncc2-c2ccc(Cl)cc2)c(O)c1`: in data set [9], the AC50 is 3.57 µM (active). In addition, the values for the EC50 (in data set [10]; at Streptokinase A; with Streptococcus) were 6.33 µM (active), > 150 µM (not active) and 8.12 µM (active), respectively.

For `CCc1c(C2(O)CCCCC2)[nH]c2cc(C(F)(F)F)ccc12`, the values for the AC50 (in [9]; in the data set with INS1) were 2.64 µM (active) and 7.52 µM (active), respectively.

Turning to `CCCn1nc(Oc2nc(NCC)nc(NC(C)C)n2)ccc1=O`, the AC50 is 0.00562 µM (inconclusive) on Cytochrome P450 3A4 and 39.8 µM (inconclusive) on Cytochrome P450 2C19 (read-out: AC50).

Regarding `C/C(=N\NC(=O)C1=NNC(=O)C1C)c1cccs1` (configuration not stated), the EC50 is > 120 µM (not active) in [1], 29.9 µM (active) in the data set on H4 and 13 µM (active) in data set [2].

With `O=C(Cn1ccs/c1=N/C(=O)C(F)(F)F)c1ccccc1`, the EC50 in data set [1] is 47.9 µM (active); in the data set with H4 it was 81.7 µM (inconclusive); in data set [2], 56.9 µM (active).
